Measured values published in article PMC3006138, “Fexinidazole – A New Oral Nitroimidazole Drug Candidate Entering Clinical Development for the Treatment of Sleeping Sickness” (PLoS Neglected Tropical Diseases, 2010).

Assays:
mouse hepatocytes = assay: Hepatocyte intrinsic clearance and metabolite profile; assay type: in vitro ADME; conditions: fexinidazole 10 µM
Procedure: (§1) Fexinidazole was incubated with cryopreserved hepatocytes from male CD-1 mice, male Sprague Dawley rats, male beagle dogs, male cynomolgus monkeys, and from pooled white or African-American human donor samples (purchased commercially), at concentrations of 1 µM and 10 µM. […] The incubated samples were analyzed by LC-MS after extraction into acetonitrile.
(§2) A quality control analysis of fexinidazole was performed via 1H-NMR in DMSO and LC- […]
(§3) provided by the Swiss Tropical Institute (Basel, Switzerland).
(§4) Reagents and solvents were of analytical grade and obtained from Sigma-Aldrich (St. Louis, […]
(§5) Cryopreserved hepatocytes from the male CD1 mouse, lot CSI; male Sprague Dawley rat, lot LPL; male beagle dog, lot BWX; male cynomolgus monkey, lot EHH; and pooled human samples, lot MJI, were purchased from In Vitro Technologies Inc (Baltimore, Maryland, […]
(§6) 5.4. In vitro Incubations
(§7) On the day of the experiment a 10 mM stock solution of fexinidazole in DMSO was prepared and, within 3 hours, aliquots of this freshly prepared solution, after suitable dilution, were added to the incubation matrix, to reach fexinidazole final concentrations of 1 and 10 µM. The final percentage of DMSO was 0.01% in the incubation samples for the […]
(§8) On the day of experiment, the cryopreserved hepatocytes were thawed following the detailed instructions provided by the supplier.
(§9) The number of viable cells was determined using a Trypan Blue exclusion method.
(§10) 5.4.1. Intrinsic Clearance Study […]
(§11) µM with mouse, rat, dog, monkey and human hepatocytes (300000 cells/mL for the mouse and 1 million cells/mL for the other species) in a final incubation volume of 0.75 mL […]
(§12) Incubations were performed in duplicate in a 48-well plate under shaking. Sampling was performed using an automatic liquid handling system (Multiprobe II EX, Packard). At 0, 1, 5, 10, 15, 20, 30, 60 and 120 minutes, 50 µL aliquots of the incubates were taken, then 80 µL of ice-cold acetonitrile and 20 µL of 1 µM warfarin in acetonitrile (internal standard) were added, and samples centrifuged at 2000 rpm for 20 min. The supernatant was analyzed by LC-MS/MS. […]
(§13) the medium alone at t = 0 and 120 minutes.
(§14) For the determination of phase I and phase II activity of hepatocytes, 7-ethoxycoumarin (7-EC) 1 µM, and 7-hydroxycoumarin (7-HC) 30 µM were used as positive controls and incubated under the same conditions as fexinidazole. Aliquots of incubates were taken at 0, 10, 20, 30, 60 and 120 minutes and processed as fexinidazole samples.
(§15) 5.4.2. Metabolite Profile Study
(§16) For metabolite profiling, fexinidazole was incubated at a concentration of 10 µM with mouse, rat, dog, monkey and human hepatocytes (300000 cells/mL for the mouse and 1 million cells/mL for the other species) in a final incubation volume of 2 mL Leibovitz L-15 […]
(§17) Aliquots of the incubation samples were taken at t = 0, 30 and 120 minutes; the metabolism was stopped by the addition of an equal volume of cold acetonitrile and the samples centrifuged at 1500 rpm for 20 min. The supernatant was stored at -20°C until analysis. Control incubations were performed with the compound in the medium alone […]
(§18) 5.5. Analysis of Samples for Intrinsic Clearance Determination
(§19) The analysis of the samples for intrinsic clearance determination was performed by an LC-MS/MS method, using the following conditions:
(§20) HPLC Equipment and Conditions
(§21) HPLC system Agilent 1100 binary pump (Agilent, Palo Alto, USA)
(§22) Autosampler CTC Pal (Alfatech, San Jose, USA)
(§23) Analytical column Guard Column SB-C8 4.6 x 12.5 mm, 5 µm (Zorbax)
(§24) Column temperature ambient
(§25) Mobile phase A 10 mM ammonium formate pH 4.0: acetonitrile (95:5, v:v)
(§26) Mobile phase B 10 mM ammonium formate pH 4.0: acetonitrile (5:95, v:v) […]
(§27) Gradient conditions Step Total time (min) flow (µL/min) %A % B […]
(§28) MS Equipment and Conditions
(§29) Mass spectrometer API 4000 Triple Quadrupole (MDS-Sciex, Toronto, […]
(§30) Source Turbo Ion Spray (TIS)
(§31) Ion mode Positive for fexinidazole and 7-EC.
(§32) Negative for 7-HC, 7-HC sulphate and 7-HC glucuronide.

dog hepatocytes = assay: as above; assay type: in vitro ADME; conditions: fexinidazole 10 µM
Procedure: as §1, §2, §3, §4, §5, §6, §7, §8, §9, §10, §11, §12, §13, §14, §15, §16, §17, §18, §19, §20, §21, §22, §23, §24, §25, §26, §27, §28, §29, §30, §31, §32

monkey hepatocytes = assay: as above; assay type: in vitro ADME, cynomolgus monkey; conditions: fexinidazole 10 µM
Procedure: as §1, §2, §3, §4, §5, §6, §7, §8, §9, §10, §11, §12, §13, §14, §15, §16, §17, §18, §19, §20, §21, §22, §23, §24, §25, §26, §27, §28, §29, §30, §31, §32

[1] = system: human hepatocytes (pooled); assay: as above; assay type: in vitro ADME; conditions: for % of total drug related material: fexinidazole 10 µM
Procedure: as §1, §2, §3, §4, §5, §6, §7, §8, §9, §10, §11, §12, §13, §14, §15, §16, §17, §18, §19, §20, §21, §22, §23, §24, §25, §26, §27, §28, §29, §30, §31, §32

[2] = system: cytochrome P450 (CYP450) enzymes; assay: In vitro CYP-450 metabolism (whole panel); assay type: in vitro ADME, human; conditions: 1.0 µM, up to 60 min
Procedure: Duplicate samples of human recombinant CYP enzyme isotypes CYP1A2, CYP2B6, CYP2C8, CYP2C9, CYP2C19, CYP2D6, CYP3A4, CYP3A5 (10–30 pmol/mL) with NADPH as cofactor were incubated with fexinidazole, fexinidazole sulfoxide, or fexinidazole sulfone at a concentration of 1.0 µM for up to 60 min (pH 7.4, 37°C). Detection of the compounds was via HPLC-MS.

Lipophilicity (logD) = assay type: physicochemical; conditions: pH 7.4
[3] = Half-life after oral treatment across species; assay type: in vivo; conditions: mouse, rat, dog, plasma, mice, rats and dogs

SMILES | % of total drug related material (mouse hepatocytes; 30 min) [%] | % of total drug related material (mouse hepatocytes; 120 min) [%] | % of total drug related material (dog hepatocytes; 30 min) [%] | % of total drug related material (dog hepatocytes; 120 min) [%] | % of total drug related material (monkey hepatocytes; 30 min) [%] | % of total drug related material (monkey hepatocytes; 120 min) [%] | % of total drug related material ([1]; 30 min) [%] | % of total drug related material ([1]; 120 min) [%] | metabolism by the enzymes tested [2] | logD (Lipophilicity (logD)) | half-life [3] [h] | % of total drug related material (mouse hepatocytes; t=0) [%] | % of total drug related material (dog hepatocytes; t=0) [%] | % of total drug related material (monkey hepatocytes; t=0) [%] | % of total drug related material ([1]; t=0) [%] | t1/2 ([1]; 1 µM) [h]
Cn1c([N+](=O)[O-])cnc1COc1ccc(S(C)(=O)=O)cc1 [Fexinidazole sulfone] | 8 | 20 | 4 | 15 | 40 | 58 | 2 | 4 | none of the enzymes tested metabolised | 0.74 | ≤ 24 | – | – | – | – | –
Cn1c([N+](=O)[O-])cnc1COc1ccc([S+](C)[O-])cc1 (centres unmarked) [Fexinidazole sulfoxide] | 92 | 80 | 94 | 84 | 60 | 42 | 96 | 95 | none of the enzymes tested metabolised | 0.52 | 2 to 7 | 58 | 50 | 47 | 17 | –
CSc1ccc(OCc2ncc([N+](=O)[O-])n2C)cc1 [Fexinidazole, 1-methyl-2-((p-(methylthio)phenoxy)methyl)-5-nitroimidazole] | – | – | – | – | – | – | 2 | < 1 | – | 2.83 | 1 to 3 | 42 | 50 | 53 | 83 | 0.223
